Reference: patent publication US20220267753A1, “RATIONAL THERAPEUTIC TARGETING OF ONCOGENIC IMMUNE SIGNALING STATES IN MYELOID MALIGNANCIES VIA THE UBIQUITIN CONJUGATING ENZYME UBE2N” (CHILDREN'S HOSPITAL MEDICAL CENTER, priority 2019, published 2022)
≈ marks a conversion by molar mass, not a printed value.

How the values were obtained:
[1] = system: THP1-Blue NF-κB reporter cells; experiment: NF-κB activation assay; assay type: cell-based, human; settings: for UBE2N-dependent activation of NF-κB, reporter screen: top 14 small molecules
Procedure: THP1-Blue NF-κB reporter cells (Invivogen) were diluted to 100,000 cells/mL and stimulated with 1 μg/mL IL1β, 100 ng/ml Pam3CSK4 or 1 μ/m LPS. The cells were subsequently seeded into a 96 well plate at 20,000 cells per well (200 μl) and introduced to drugs in an increasing concentration. The plates were incubated at 37 C, 5% CO2 for 24 hours. The following day, QuantiBlue Reagent was warmed to 37 C in a water bath and 180 μl was added to each well of a separate, clean 96 well plate. The incubated cells were spun down, and the supernatant was taken for the assay. To perform the assay, 20 μl of supernatant from each well was pipetted into the respective 180 μl QuantiBlue Reagent well, in triplicate. The reaction was mixed and incubated for 1 to 4 hours, when a color gradient could be seen. The absorbance was read at 630 nm for a final readout.

[2] = system: MOLM-13; experiment: Cell proliferation MTS assay / cytotoxicity screen; assay type: cell-based, human; settings: for cytotoxicity screen in MOLM-13 cells: 2nd screen at 2 μM, 24 hr MTS
Procedure: AML cell lines (5×10^3 cells/well) were seeded in 96-well plates and grown for 24 to 96 h in serum (10%)-containing medium in the presence or absence of inhibitors at the indicated concentrations. Proliferation was analyzed by means of an MTS assay using the CellTiter 96 Aqueous One Solution Cell Proliferation Assay (Promega, Madison, Wis., USA), according to the manufacturer's instructions. Data are mean with standard deviation from three independent experiments in technical triplicates. For the screening of 160 compounds from the UC library, the cell metabolic activity was assessed at 24 hours of treatment of MOLM-13 cells. Top 15 candidates were re-screened at 2 μM, and the cell metabolic activity was determined at 24 hours of treatment. In certain experiments, cell viability was determined by staining the cells with trypan blue at a 1/2 dilution and counting total number of viable cells upon treatment with UC-764864 or DMSO control. The cells were counted daily for 4 days using an automated cell counter (Countess II FL from Life Technologies). The cell proliferation in primary AMLs in FIG. 9E was performed as follows: 50,000 cells were plated in duplicate in a 96 well plate in IMDM containing 20% heat inactivated FBS plus 10 ng/ml of each SCF, IL3, IL6, TPO, and FLT3. UC-764864 was added at the indicated concentrations and cells were incubated with drug for 3 days, at which point cell viability was measured by MTS according to manufacturer's instructions.

[3] = Aqueous solubility; assay type: physicochemical; settings: aqueous medium (not further specified); read-out: Aqueous Solubility, highest soluble concentration
[4] = target: T1, UBE2N (Homo sapiens, UniProt P61088); experiment: Cellular thermal shift assay (CETSA) in MOLM-13 cells; assay type: binding; design: quantification of Ts, for endogenous UBE2N; endogenous in cells; host or cells: MOLM-13; settings: MOLM-13, 1 hour, heat challenge at Tagg(75); read-out: EC50 of stabilization of UBE2N (CETSA)
T1 sequence (P61088 1-152): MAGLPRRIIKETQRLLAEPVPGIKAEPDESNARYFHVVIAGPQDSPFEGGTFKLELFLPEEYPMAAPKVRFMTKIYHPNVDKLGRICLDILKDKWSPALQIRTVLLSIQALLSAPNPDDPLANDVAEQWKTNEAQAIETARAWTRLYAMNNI
Procedure: CETSA was performed with MOLM-13 cells cultured in RPMI medium supplemented with 10% FBS. For an initial determination of the melting profile of UBE2N, fresh cell lysate prepared in non-denaturing buffer was dispensed into 96-well PCR plate in the above medium (approx. 8000 cells/well/50 μl), then was subjected to temperature gradient (37-60° C.) for 20 min. Subsequently, centrifugation was performed at 14,000 rpm to sediment the unstable protein content. Supernatant was collected and SDS-PAGE gel was run, and immuno-detection was performed for UBE2N using corresponding primary antibody. Band intensity was quantified on LI-COR C-Digit Blot Scanner, and subsequently Tagg(50) and Tagg(75) values were calculated for UBE2N. In a subsequent run, fresh lysates of MOLM-13 cells were treated at various doses with 4-fold dilutions (10, 2.5, 0.62, 0.15, 0.04, 0.01 and 0.002 .tM) of compounds UC-764864 and UC-764865 together with DMSO control, for 1 hour. Samples were then subjected to heat challenge at Tagg(75) for 20 min, and unstable protein was removed by centrifugation step. Following an immuno-blotting step, bands of remaining stable UBE2N were quantified, normalized to loading control and plotted using GraphPad Prism software. EC50 values of engagement for both compounds with UBE2N were subsequently calculated.

Structure (SMILES) | UBE2N-mediated NF-κB activity downstream of IL1R, TLR2, TLR4 ([1]; increasing concentrations, concentration dependent, equal potency) | UBE2N-dependent activation of NF-κB, reporter screen [1] | cytotoxicity screen in MOLM-13 cells [2] | IC50 ([2]; Homo sapiens, MOLM-13, MTS, 24 hours) | solubility [3] | EC50 [4]
CCc1ccc(C(=O)C=CSc2nc3ccc(C)cc3[nH]2)cc1 [UC-764864, 1-(4-ethylphenyl)-3-[(6-methyl-1H-benzimidazol-2-yl)sulfanyl]prop-2-en-1-one] | inhibited UBE2N-mediated NF-κB activity | inhibition of UBE2N-dependent signaling | cytotoxic effects | 1.9 µM | 1 µM (≈ 0.322 µg/mL) | 2.2 µM
COc1ccc(C(=O)C=CSc2nc3ccc(C)cc3[nH]2)cc1 [UC-764865, 1-(4-methoxyphenyl)-3-[(6-methyl-1H-benzimidazol-2-yl)sulfanyl]prop-2-en-1-one] | – | inhibition of UBE2N-dependent signaling | cytotoxic effects | – | 5 µM (≈ 1.62 µg/mL) | 0.42 µM
